Source: the NIST ThermoML archive (doi:10.1016/j.jct.2004.07.024)

Assay: xn = mol fraction of the nth substance listed
Details: 101.33 kPa, Liquid

C[S+](C)[O-] [dimethyl sulfoxide] + Cc1ccccc1
Details | mass density [kg/m3]
293.15 K, x2 = 0.0689 | 1077.87
293.15 K, x2 = 0.1505 | 1053.27
293.15 K, x2 = 0.2269 | 1031.56
293.15 K, x2 = 0.3036 | 1010.99
293.15 K, x2 = 0.3758 | 992.64
293.15 K, x2 = 0.4568 | 973.24
293.15 K, x2 = 0.5177 | 959.33
293.15 K, x2 = 0.5769 | 946.41
293.15 K, x2 = 0.6342 | 934.37
293.15 K, x2 = 0.6885 | 923.31
293.15 K, x2 = 0.7512 | 911.04
293.15 K, x2 = 0.8181 | 898.38
293.15 K, x2 = 0.8856 | 886.05
293.15 K, x2 = 0.9553 | 873.71
303.15 K, x2 = 0.0652 | 1069.85
303.15 K, x2 = 0.1295 | 1050.38
303.15 K, x2 = 0.1806 | 1035.51
303.15 K, x2 = 0.2563 | 1014.57
303.15 K, x2 = 0.3098 | 1000.5
303.15 K, x2 = 0.3845 | 981.74
303.15 K, x2 = 0.4456 | 967.18
303.15 K, x2 = 0.5169 | 950.98
303.15 K, x2 = 0.5813 | 937.04
303.15 K, x2 = 0.6645 | 919.88
303.15 K, x2 = 0.7499 | 903.18
303.15 K, x2 = 0.8114 | 891.64
303.15 K, x2 = 0.8802 | 879.15
303.15 K, x2 = 0.9532 | 866.39
313.15 K, x2 = 0.0661 | 1059.41
313.15 K, x2 = 0.1202 | 1043.16
313.15 K, x2 = 0.1891 | 1023.36
313.15 K, x2 = 0.2403 | 1009.32
313.15 K, x2 = 0.2945 | 995.06
313.15 K, x2 = 0.3615 | 978.24
313.15 K, x2 = 0.4369 | 960.28
313.15 K, x2 = 0.5156 | 942.59
313.15 K, x2 = 0.5813 | 928.56
313.15 K, x2 = 0.6558 | 913.41
313.15 K, x2 = 0.7267 | 899.63
313.15 K, x2 = 0.7956 | 886.78
313.15 K, x2 = 0.8821 | 871.32
313.15 K, x2 = 0.9448 | 860.52
323.15 K, x2 = 0.0884 | 1042.41
323.15 K, x2 = 0.1236 | 1032.08
323.15 K, x2 = 0.1869 | 1014.1
323.15 K, x2 = 0.2536 | 996.08
323.15 K, x2 = 0.3285 | 976.94
323.15 K, x2 = 0.3996 | 959.75
323.15 K, x2 = 0.4501 | 948.11
323.15 K, x2 = 0.4969 | 937.7
323.15 K, x2 = 0.5563 | 925
323.15 K, x2 = 0.616 | 912.74
323.15 K, x2 = 0.6725 | 901.61
323.15 K, x2 = 0.7562 | 885.79
323.15 K, x2 = 0.8532 | 868.42
323.15 K, x2 = 0.9458 | 852.63
333.15 K, x2 = 0.0598 | 1040.93
333.15 K, x2 = 0.1436 | 1016.4
333.15 K, x2 = 0.2258 | 993.84
333.15 K, x2 = 0.2931 | 976.44
333.15 K, x2 = 0.3652 | 958.78
333.15 K, x2 = 0.4112 | 948.06
333.15 K, x2 = 0.4859 | 931.36
333.15 K, x2 = 0.5301 | 921.94
333.15 K, x2 = 0.5965 | 908.31
333.15 K, x2 = 0.6789 | 892.24
333.15 K, x2 = 0.7215 | 884.23
333.15 K, x2 = 0.7899 | 871.86
333.15 K, x2 = 0.8512 | 861.15
333.15 K, x2 = 0.9503 | 844.53
343.15 K, x2 = 0.0599 | 1030.68
343.15 K, x2 = 0.1102 | 1015.93
343.15 K, x2 = 0.1798 | 996.46
343.15 K, x2 = 0.2549 | 976.61
343.15 K, x2 = 0.3169 | 961.13
343.15 K, x2 = 0.3858 | 944.75
343.15 K, x2 = 0.4405 | 932.38
343.15 K, x2 = 0.5258 | 914.08
343.15 K, x2 = 0.5936 | 900.34
343.15 K, x2 = 0.6678 | 886.01
343.15 K, x2 = 0.7166 | 876.96
343.15 K, x2 = 0.7925 | 863.42
343.15 K, x2 = 0.8792 | 848.65
343.15 K, x2 = 0.9552 | 836.24
353.15 K, x2 = 0.0801 | 1014.55
353.15 K, x2 = 0.1526 | 994.06
353.15 K, x2 = 0.2215 | 975.63
353.15 K, x2 = 0.2869 | 959.04
353.15 K, x2 = 0.3568 | 942.26
353.15 K, x2 = 0.4205 | 927.79
353.15 K, x2 = 0.4956 | 911.6
353.15 K, x2 = 0.5723 | 895.96
353.15 K, x2 = 0.6321 | 884.4
353.15 K, x2 = 0.7058 | 870.71
353.15 K, x2 = 0.768 | 859.69
353.15 K, x2 = 0.8363 | 848.04
353.15 K, x2 = 0.8913 | 838.96
353.15 K, x2 = 0.9524 | 829.17
